According to PubChem BioAssay AID330 (DTP/NCI, 2004):
Where “and” joins values, the source holds several entries; their conditions need not be identical. Equal values may be shown once. Toxic doses and inconclusive results are not listed.

Test system: P388 leukemia ip, CD2F1 mice, survival T/C
Test: NCI In Vivo Anticancer Drug Screen. Data for tumor model P388 Leukemia (intraperitoneal) in CD2F1 (CDF1) mice
Conditions: endpoint: median survival time, higher = longer survival
Procedure, shortened: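 Mice carrying the transplanted tumor received test compound or vehicle. Survival was recorded in each group, and the value is the treated-group measurement divided by that of the vehicle-treated control group.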

[1] = dose: 100.0 mg/kg/injection, schedule: Q04DX003 (ip), vehicle: Klucel (hydroxypropylcellulose) (HPC)
[2] = dose: 200.0 mg/kg/injection, schedule: Q04DX003 (ip), vehicle: Klucel (hydroxypropylcellulose) (HPC)
[3] = dose: 60.0 mg/kg/injection, schedule: Q01DX005 (ip), vehicle: saline with Tween-80
[4] = dose: 25.0 mg/kg/injection, schedule: Q01DX009 (ip), vehicle: Klucel (hydroxypropylcellulose) (HPC)
[5] = dose: 50.0 mg/kg/injection, schedule: Q01DX009 (ip), vehicle: Klucel (hydroxypropylcellulose) (HPC)
[6] = dose: 100.0 mg/kg/injection, schedule: Q01DX009 (ip), vehicle: Klucel (hydroxypropylcellulose) (HPC)

## NS(=O)(=O)Oc1ccc(Cl)cc1C(=O)Oc1ccc(Cl)cc1
dose: 60.0 mg/kg/injection, schedule: Q01DX005 (ip), vehicle: Klucel (hydroxypropylcellulose) (HPC)
  T/C: 91 % of control
dose: 120.0 mg/kg/injection, schedule: Q01DX005 (ip), vehicle: Klucel (hydroxypropylcellulose) (HPC)
  T/C: 91 % of control
dose: 240.0 mg/kg/injection, schedule: Q01DX005 (ip), vehicle: Klucel (hydroxypropylcellulose) (HPC)
  T/C: 88 % of control

## C1CC[N-]CC1.C1CC[N-]CC1.[Cl][Pt+2]([Cl])([Cl])[Cl]
dose: 264.0 mg/kg/injection, schedule: Q01DX009 (ip), vehicle: saline with Tween-80
  T/C: 86 % of control

## COc1cc([N+](=O)[O-])cc2c1OC1(SC(C)(C)C(C)CN1C)C(C)=C2 (centres undefined)
dose: 100.0 mg/kg/injection, schedule: Q04DX003 (ip), vehicle: saline with Tween-80
  T/C: 105 % of control
dose: 200.0 mg/kg/injection, schedule: Q04DX003 (ip), vehicle: saline with Tween-80
  T/C: 100 % of control
dose: 400.0 mg/kg/injection, schedule: Q04DX003 (ip), vehicle: saline with Tween-80
  T/C: 95 % of control

## CCCCCCCOc1ccc(OCCCC[N+]2(CC)CCCCC2)cc1
dose: 1.56 mg/kg/injection, schedule: Q01DX009 (ip), vehicle: saline
  T/C: 103 % of control
dose: 3.12 mg/kg/injection, schedule: Q01DX009 (ip), vehicle: saline
  T/C: 100 % of control
dose: 6.25 mg/kg/injection, schedule: Q01DX009 (ip), vehicle: saline
  T/C: 102 % of control

## CCc1c2oc(C(=O)c3ccc(Cl)cc3)cc2n2ccccc12
dose: 60.0 mg/kg/injection, schedule: Q01DX005 (ip), vehicle: Klucel + Tween-80
  T/C: 89 % of control
dose: 120.0 mg/kg/injection, schedule: Q01DX005 (ip), vehicle: Klucel + Tween-80
  T/C: 86 % of control

## COC(OC)C(C)N1CCCCC1 (centres undefined)
dose: 12.5 mg/kg/injection, schedule: Q01DX009 (ip), vehicle: saline
  T/C: 104 % of control
dose: 25.0 mg/kg/injection, schedule: Q01DX009 (ip), vehicle: saline
  T/C: 97 % of control
dose: 50.0 mg/kg/injection, schedule: Q01DX009 (ip), vehicle: saline
  T/C: 99 % of control and 96 % of control

## CC1OC(Nc2ncnc3nc[nH]c23)C(O)C(O)C1NC(=O)CNC(=O)CCCCCCCCCCCC(C)(C)C (centres undefined)
dose: 0.25 mg/kg/injection, schedule: Q01DX009 (ip), vehicle: distilled water + Tween-80
  T/C: 111 % of control and 117 % of control
dose: 0.5 mg/kg/injection, schedule: Q01DX009 (ip), vehicle: distilled water + Tween-80
  T/C: 118 % of control
dose: 1.0 mg/kg/injection, schedule: Q01DX009 (ip), vehicle: distilled water + Tween-80
  T/C: 166 % of control
dose: 2.0 mg/kg/injection, schedule: Q01DX009 (ip), vehicle: distilled water + Tween-80
  T/C: 117 % of control
dose: 4.0 mg/kg/injection, schedule: Q01DX009 (ip), vehicle: distilled water + Tween-80
  T/C: 108 % of control and 91 % of control

## CCC(=O)C1(C)OC1C(C)CC(C)C1OC(=O)CC2(O)CC=C(C)C(O2)/C(C)=C/CCCC(OC2CC(OC(N)=O)C(O)C(C)O2)/C=C/C(C)C(O)C1C (centres undefined)
dose: 6.2 mg/kg/injection, schedule: Q01DX005 (ip), vehicle: Klucel (hydroxypropylcellulose) (HPC)
  T/C: 109 % of control
dose: 12.5 mg/kg/injection, schedule: Q01DX005 (ip), vehicle: Klucel (hydroxypropylcellulose) (HPC)
  T/C: 98 % of control
dose: 25.0 mg/kg/injection, schedule: Q01DX005 (ip), vehicle: Klucel (hydroxypropylcellulose) (HPC)
  T/C: 103 % of control
dose: 50.0 mg/kg/injection, schedule: Q01DX005 (ip), vehicle: Klucel (hydroxypropylcellulose) (HPC)
  T/C: 108 % of control

## C=C(C)c1nc(N)nc(-c2ccc([N+](=O)[O-])cc2)n1
dose: 100.0 mg/kg/injection, schedule: Q04DX002 (ip), vehicle: Klucel (hydroxypropylcellulose) (HPC)
  T/C: 88 % of control
dose: 200.0 mg/kg/injection, schedule: Q04DX002 (ip), vehicle: Klucel (hydroxypropylcellulose) (HPC)
  T/C: 88 % of control
dose: 400.0 mg/kg/injection, schedule: Q04DX002 (ip), vehicle: Klucel (hydroxypropylcellulose) (HPC)
  T/C: 88 % of control

## CC1(c2ccccc2)c2ccccc2N(c2ccccc2)C(=O)C1O (centres undefined)
[1]
  T/C: 101 % of control and 109 % of control
[2]
  T/C: 100 % of control and 107 % of control
dose: 400.0 mg/kg/injection, schedule: Q04DX003 (ip), vehicle: Klucel (hydroxypropylcellulose) (HPC)
  T/C: 100 % of control and 109 % of control

## COC12C(COC(N)=O)C3=C(C(=O)C(C)=C(N4CC4)C3=O)N1CC1NC12 (centres undefined)
dose: 0.13 mg/kg/injection, schedule: Q04DX003 (ip), vehicle: saline sonified
  T/C: 154 % of control
dose: 0.25 mg/kg/injection, schedule: Q04DX003 (ip), vehicle: saline sonified
  T/C: 163 % of control
dose: 0.33 mg/kg/injection, schedule: Q04DX003 (ip), vehicle: saline with Tween-80
  T/C: 91 % of control
dose: 0.5 mg/kg/injection, schedule: Q04DX003 (ip), vehicle: saline sonified
  T/C: 181 % of control
dose: 0.75 mg/kg/injection, schedule: Q04DX003 (ip), vehicle: saline with Tween-80
  T/C: 87 % of control

## C=C(c1ccccc1)C1(O)CCCCC1N(C)C (centres undefined)
dose: 25.0 mg/kg/injection, schedule: Q04DX002 (ip), vehicle: saline with Tween-80
  T/C: 102 % of control
dose: 50.0 mg/kg/injection, schedule: Q04DX002 (ip), vehicle: saline with Tween-80
  T/C: 100 % of control
dose: 100.0 mg/kg/injection, schedule: Q04DX002 (ip), vehicle: saline with Tween-80
  T/C: 94 % of control

## Nc1[nH]c(=O)ncc1-c1cccc(Cl)c1
dose: 15.0 mg/kg/injection, schedule: Q01DX005 (ip), vehicle: saline with Tween-80
  T/C: 103 % of control
dose: 30.0 mg/kg/injection, schedule: Q01DX005 (ip), vehicle: saline with Tween-80
  T/C: 104 % of control
[3]
  T/C: 106 % of control and 96 % of control

## CCCCCc1ccccc1O
dose: 50.0 mg/kg/injection, schedule: Q01DX009 (ip), vehicle: saline with Tween-80
  T/C: 100 % of control
dose: 100.0 mg/kg/injection, schedule: Q01DX009 (ip), vehicle: saline with Tween-80
  T/C: 95 % of control

## CC1(C(=O)O)CCC2(C)CCC3(C)C(=CC(=O)C4C5(C)CCC(O)C(C)(C)C5CCC43C)C2C1 (centres undefined)
[4]
  T/C: 95 % of control
[5]
  T/C: 100 % of control
dose: 50.0 mg/kg/injection, schedule: Q04DX003 (ip), vehicle: Klucel (hydroxypropylcellulose) (HPC)
  T/C: 105 % of control
[6]
  T/C: 94 % of control
[1]
  T/C: 100 % of control
dose: 200.0 mg/kg/injection, schedule: Q01DX009 (ip), vehicle: Klucel (hydroxypropylcellulose) (HPC)
  T/C: 94 % of control
[2]
  T/C: 106 % of control

## COC(=O)Cc1nc2ccccc2s1
[3]
  T/C: 102 % of control
dose: 120.0 mg/kg/injection, schedule: Q01DX005 (ip), vehicle: saline with Tween-80
  T/C: 104 % of control
dose: 240.0 mg/kg/injection, schedule: Q01DX005 (ip), vehicle: saline with Tween-80
  T/C: 103 % of control

## C/C(=C\C=C/c1ccoc1)C(=O)c1cc(C)co1
dose: 6.25 mg/kg/injection, schedule: Q01DX009 (ip), vehicle: Klucel (hydroxypropylcellulose) (HPC)
  T/C: 106 % of control
dose: 12.5 mg/kg/injection, schedule: Q01DX009 (ip), vehicle: Klucel (hydroxypropylcellulose) (HPC)
  T/C: 103 % of control and 95 % of control
[4]
  T/C: 106 % of control and 96 % of control
[5]
  T/C: 115 % of control and 96 % of control
[6]
  T/C: 104 % of control

## CCN1CCCC(Nc2cc(C)nc(/N=C(/N)Nc3ccc(Cl)c(Cl)c3)n2)C1 (centres undefined)
dose: 3.13 mg/kg/injection, schedule: Q01DX009 (ip), vehicle: water
  T/C: 93 % of control
dose: 6.25 mg/kg/injection, schedule: Q01DX009 (ip), vehicle: water
  T/C: 97 % of control
dose: 12.5 mg/kg/injection, schedule: Q01DX009 (ip), vehicle: water
  T/C: 107 % of control and 97 % of control
dose: 25.0 mg/kg/injection, schedule: Q01DX009 (ip), vehicle: water
  T/C: 101 % of control

## CC1(C)CC(C)(OC(=O)c2ccc([N+](=O)[O-])cc2)N=N1 (centres undefined)
dose: 12.5 mg/kg/injection, schedule: Q01DX009 (ip), vehicle: other
  T/C: 102 % of control
dose: 25.0 mg/kg/injection, schedule: Q01DX009 (ip), vehicle: other
  T/C: 97 % of control
dose: 50.0 mg/kg/injection, schedule: Q01DX009 (ip), vehicle: other
  T/C: 102 % of control
dose: 100.0 mg/kg/injection, schedule: Q01DX009 (ip), vehicle: other
  T/C: 100 % of control
dose: 200.0 mg/kg/injection, schedule: Q01DX009 (ip), vehicle: other
  T/C: 101 % of control

## O=C(O)c1cocc1C(=O)O
dose: 60.0 mg/kg/injection, schedule: Q01DX005 (ip), vehicle: saline
  T/C: 99 % of control
dose: 120.0 mg/kg/injection, schedule: Q01DX005 (ip), vehicle: saline
  T/C: 86 % of control

## CC(=O)Oc1c(C)c(OC(C)=O)c2c(c1C(C)=O)OC1CC(=O)C(C(C)=O)=C(O)C21C (centres undefined)
dose: 6.25 mg/kg/injection, schedule: Q01DX009 (ip), vehicle: gum acacia
  T/C: 101 % of control and 97 % of control
dose: 12.5 mg/kg/injection, schedule: Q01DX009 (ip), vehicle: gum acacia
  T/C: 100 % of control and 102 % of control
dose: 25.0 mg/kg/injection, schedule: Q01DX009 (ip), vehicle: gum acacia
  T/C: 102 % of control
dose: 50.0 mg/kg/injection, schedule: Q01DX009 (ip), vehicle: gum acacia
  T/C: 101 % of control and 104 % of control
dose: 100.0 mg/kg/injection, schedule: Q01DX009 (ip), vehicle: gum acacia
  T/C: 94 % of control
